Here are results for one compound from ChEMBL document CHEMBL4706653, “Ultra-short lipopeptides against gram-positive bacteria while alleviating antimicrobial resistance” (Eur J Med Chem, 2021).

Activity calls are given as the source filed them. No cut-off for these calls is given here. Residues, ends and D or L forms follow the SMILES beside them. *: point of attachment. Myristoyl = CCCCCCCCCCCCCC(=O)*

Assay [1] concerns Staphylococcus aureus. The experiment in a line: Antimicrobial activity against Staphylococcus aureus ATCC 25923 infected in neutropenia BALB/c mouse assessed as reduction in bacterial load in liver at 10 to 20 mg/kg, ip administered staring from 2 hrs post infection and measured 8 hrs post-infected. Type of assay: functional, organism-based. To be noted: dose 10-20 mg/kg, time 6.0 hrs.

Assay [2] relates to Staphylococcus aureus. The experiment in a line: Antimicrobial activity against Staphylococcus aureus ATCC 25923 infected in neutropenia BALB/c mouse assessed as reduction in bacterial load in kidney at 10 mg/kg, ip administered staring from 2 hrs post infection and measured 8 hrs post-infected in presence of ciprofloxacin. It counts as functional, organism-based. To be noted: time 6.0 hrs.

In the case of `CCCCCCCCCCCCCC(=O)N[C@@H](CCCNC(=N)N)C(=O)N[C@@H](Cc1c[nH]c2ccccc12)C(=O)N[C@@H](Cc1c[nH]c2ccccc12)C(N)=O` (Myristoyl-Arg-Trp-Trp-NH2), the result in assay [1] and in assay [2] was Active.
